Experimental data published in ChEMBL document CHEMBL6096721, “Discovery of Selenium-Containing Derivatives as Potent and Orally Bioavailable GLP-1R Agonists” (J Med Chem, 2025).
One block for each molecule: values may come before it. The source made the active and inactive calls. The calls are words filed in the database; no cut-off is given here.

Assays:
[1] = biological target: T1, Glucagon-like peptide 1 receptor (Homo sapiens, UniProt P43220); experiment: Binding affinity to human GLP-1R assessed as dissociation constant (KD) by SPR analysis
[2] = Toxicity in human GLP-1R knockin male mouse model assessed as effect on spleen pathology at 30 mg/kg, sc measured after 24 hrs by H and E staining based analysis; type: organism-based; settings: in vivo
[3] = Protein binding in mouse plasma at 2 uM; type: ADME, cell-free; settings: read-out: PPB (converted)
[4] = Cmax in male ICR mouse at 2 mg/kg, iv measured after 24 hrs by LC-MS/MS analysis; type: ADME, organism-based; settings: in vivo
[5] = Oral bioavailability in male ICR mouse at 10 mg/kg measured after 24 hrs by LC-MS/MS analysis; type: ADME, organism-based; settings: in vivo
[6] = Subacute toxicity in male BALB/c mouse assessed as mortality at 150 mg/kg, po administered via gavage for 14 days; type: organism-based; settings: in vivo, 336 h, time 14 day
[7] = Toxicity in human GLP-1R knockin male mouse model assessed as effect on ALT level at 30 mg/kg, sc measured after 24 hrs; type: organism-based; settings: in vivo
[8] = MRT (0 to t) in male ICR mouse at 2 mg/kg, iv measured after 24 hrs by LC-MS/MS analysis; type: ADME, organism-based; settings: in vivo
[9] = Subacute toxicity in male BALB/c mouse assessed as change in spleen to body weight ratio at 150 mg/kg, po administered via gavage for 14 days; type: organism-based; settings: in vivo, 336 h, time 14 day
[10] = AUC (0 to t) in male ICR mouse at 2 mg/kg, iv measured after 24 hrs by LC-MS/MS analysis; type: ADME, organism-based; settings: in vivo
[11] = tested on: Mus musculus; experiment: Appetite suppressing activity in human GLP-1R knockin male mouse model assessed as reduction in food intake at 30 mg/kg, sc measured at 12 to 24 hrs (light cycle); type: functional, organism-based; settings: time 12-24 hrs
[12] = Cmax in male ICR mouse at 10 mg/kg, po measured after 24 hrs by LC-MS/MS analysis; type: ADME, organism-based; settings: in vivo
[13] = Subacute toxicity in male BALB/c mouse assessed as pathologic change in spleen at 150 mg/kg, po administered via gavage for 14 days by H and E staining based analysis; type: organism-based; settings: in vivo, 336 h, time 14 day
[14] = Subacute toxicity in male BALB/c mouse assessed as change in heart to body weight ratio at 150 mg/kg, po administered via gavage for 14 days; type: organism-based; settings: in vivo, 336 h, time 14 day
[15] = Subacute toxicity in male BALB/c mouse assessed as body weight loss at 150 mg/kg, po administered via gavage for 14 days; type: organism-based; settings: in vivo, 336 h, time 14 day
[16] = Toxicity in human GLP-1R knockin male mouse model assessed as effect on BUN level at 30 mg/kg, sc measured after 24 hrs; type: organism-based; settings: in vivo
[17] = Toxicity in human GLP-1R knockin male mouse model assessed as effect on heart pathology at 30 mg/kg, sc measured after 24 hrs by H and E staining based analysis; type: organism-based; settings: in vivo
[18] = Half-life in male ICR mouse at 2 mg/kg, iv measured after 24 hrs by LC-MS/MS analysis; type: ADME, organism-based; settings: in vivo
[19] = Unbound Cmax in male ICR mouse at 10 mg/kg, po measured after 24 hrs by LC-MS/MS analysis; type: ADME, organism-based; settings: in vivo
[20] = Nephrotoxicity in male BALB/c mouse assessed as decrease in creatinine level at 150 mg/kg, po administered via gavage for 14 days; type: toxicity, organism-based; settings: in vivo, 336 h, time 14 day
[21] = Subacute toxicity in male BALB/c mouse assessed as pathologic change in kidney at 150 mg/kg, po administered via gavage for 14 days by H and E staining based analysis; type: organism-based; settings: in vivo, 336 h, time 14 day
[22] = biological target: T1, Glucagon-like peptide 1 receptor; experiment: Binding affinity to human GLP-1R assessed as association rate constant by SPR analysis; settings: filed as agonist
[23] = Subacute toxicity in male BALB/c mouse assessed as change in liver to body weight ratio at 150 mg/kg, po administered via gavage for 14 days; type: organism-based; settings: in vivo, 336 h, time 14 day
[24] = Nephrotoxicity in male BALB/c mouse assessed as effect on blood urea nitrogen level at 150 mg/kg, po administered via gavage for 14 days; type: toxicity, organism-based; settings: in vivo, 336 h, time 14 day
[25] = Subacute toxicity in male BALB/c mouse assessed as change in lung to body weight ratio at 150 mg/kg, po administered via gavage for 14 days; type: organism-based; settings: in vivo, 336 h, time 14 day
[26] = Hepatotoxicity in male BALB/c mouse assessed as effect on AST level at 150 mg/kg, po administered via gavage for 14 days; type: toxicity, organism-based; settings: in vivo, 336 h, time 14 day
[27] = Protein binding in mouse plasma at 2 uM assessed as unbound fraction; type: ADME, cell-free
[28] = biological target: T1, Glucagon-like peptide 1 receptor; experiment: Partial agonist activity at LgBit-tagged GLP-1R (unknown origin) transfected in HEK293 cells co-transfected with Smbit-tagged beta-arrestin-1 assessed as beta-arrestin recruitment incubated for 5 mins by envision microplate reader analysis; type: functional, cell-based
[29] = tested on: Mus musculus; experiment: Appetite suppressing activity in human GLP-1R knockin male mouse model assessed as reduction in food intake at 30 mg/kg, sc measured after 2.5 to 12 hrs; type: functional, organism-based; settings: time 2.5-12 hrs
[30] = Half-life in male ICR mouse at 10 mg/kg, po measured after 24 hrs by LC-MS/MS analysis; type: ADME, organism-based; settings: in vivo
[31] = biological target: T1, Glucagon-like peptide 1 receptor; experiment: Binding affinity to human GLP-1R assessed as dissociation rate constant (Kd) by SPR analysis
[32] = Toxicity in human GLP-1R knockin male mouse model assessed as effect on kidney pathology at 30 mg/kg, sc measured after 24 hrs by H and E staining based analysis; type: organism-based; settings: in vivo
[33] = Subacute toxicity in male BALB/c mouse assessed as pathologic change in lung at 150 mg/kg, po administered via gavage for 14 days by H and E staining based analysis; type: organism-based; settings: in vivo, 336 h, time 14 day
[34] = Toxicity in human GLP-1R knockin male mouse model assessed as effect on creatinine level at 30 mg/kg, sc measured after 24 hrs; type: organism-based; settings: in vivo
[35] = biological target: T1, Glucagon-like peptide 1 receptor; experiment: Partial agonist activity at LgBit-tagged GLP-1R (unknown origin) transfected in HEK293 cells co-transfected with Smbit-tagged beta-arrestin-1 assessed as beta-arrestin recruitment by measuring maximal efficacy incubated for 5 mins by envision microplate reader analysis relative to control; type: functional, cell-based
[36] = Apparent volume of distribution in male ICR mouse at 2 mg/kg, iv measured after 24 hrs by LC-MS/MS analysis; type: ADME, organism-based; settings: in vivo, read-out: Vz
[37] = Hepatotoxicity in male BALB/c mouse assessed as effect on ALT level at 150 mg/kg, po administered via gavage for 14 days; type: toxicity, organism-based; settings: in vivo, 336 h, time 14 day
[38] = Subacute toxicity in male BALB/c mouse assessed as change in kidney to body weight ratio at 150 mg/kg, po administered via gavage for 14 days; type: organism-based; settings: in vivo, 336 h, time 14 day
[39] = MRT (0 to t) in male ICR mouse at 10 mg/kg, po measured after 24 hrs by LC-MS/MS analysis; type: ADME, organism-based; settings: in vivo
[40] = AUC (0 to t) in male ICR mouse at 10 mg/kg, po measured after 24 hrs by LC-MS/MS analysis; type: ADME, organism-based; settings: in vivo
[41] = Subacute toxicity in male BALB/c mouse assessed as pathologic change in heart at 150 mg/kg, po administered via gavage for 14 days by H and E staining based analysis; type: organism-based; settings: in vivo, 336 h, time 14 day
[42] = Toxicity in human GLP-1R knockin male mouse model assessed as effect on AST level at 30 mg/kg, sc measured after 24 hrs; type: organism-based; settings: in vivo
[43] = tested on: Mus musculus; experiment: Antidiabetic activity in human GLP-1R knockin male mouse model assessed as reduction in blood glucose level at 2 mg/kg, IG preadministered with compound for 1 hrs followed by glucose administration for 3 hrs by oral glucose tolerance test; type: functional, organism-based; settings: time 4.0 hrs
[44] = Toxicity in human GLP-1R knockin male mouse model assessed as effect on lung pathology at 30 mg/kg, sc measured after 24 hrs by H and E staining based analysis; type: organism-based; settings: in vivo
[45] = Subacute toxicity in male BALB/c mouse assessed as pathologic change in liver at 150 mg/kg, po administered via gavage for 14 days by H and E staining based analysis; type: organism-based; settings: in vivo, 336 h, time 14 day
[46] = Clearance in male ICR mouse at 2 mg/kg, iv measured after 24 hrs by LC-MS/MS analysis; type: ADME, organism-based; settings: in vivo
[47] = Toxicity in human GLP-1R knockin male mouse model assessed as effect on liver pathology at 30 mg/kg, sc measured after 24 hrs by H and E staining based analysis; type: organism-based; settings: in vivo
[48] = tested on: Mus musculus; experiment: (§1) Antidiabetic activity in human GLP-1R knockin male mouse model assessed as reduction in blood glucose level at 2 mg/kg, IG preadministered with compound for 1 hrs followed by first dose of glucose administration for 3 hrs and measured after 270 mins of second glucose administration by oral glucose tolerance test; type: functional, organism-based; settings: time 510.0 min
[49] = Tmax in male ICR mouse at 10 mg/kg, po measured after 24 hrs by LC-MS/MS analysis; type: ADME, organism-based; settings: in vivo
[50] = tested on: Mus musculus; experiment: as §1, with “300” for “270”; type: functional, organism-based; settings: time 540.0 min
[51] = biological target: T1, Glucagon-like peptide 1 receptor; experiment: Agonist activity at human GLP-1R expressed in HEK293 cells assessed as cAMP accumulation incubated for 30 mins by LANCE ultra cAMP assay; type: functional, cell-based

T1 sequence (P43220 whole entry): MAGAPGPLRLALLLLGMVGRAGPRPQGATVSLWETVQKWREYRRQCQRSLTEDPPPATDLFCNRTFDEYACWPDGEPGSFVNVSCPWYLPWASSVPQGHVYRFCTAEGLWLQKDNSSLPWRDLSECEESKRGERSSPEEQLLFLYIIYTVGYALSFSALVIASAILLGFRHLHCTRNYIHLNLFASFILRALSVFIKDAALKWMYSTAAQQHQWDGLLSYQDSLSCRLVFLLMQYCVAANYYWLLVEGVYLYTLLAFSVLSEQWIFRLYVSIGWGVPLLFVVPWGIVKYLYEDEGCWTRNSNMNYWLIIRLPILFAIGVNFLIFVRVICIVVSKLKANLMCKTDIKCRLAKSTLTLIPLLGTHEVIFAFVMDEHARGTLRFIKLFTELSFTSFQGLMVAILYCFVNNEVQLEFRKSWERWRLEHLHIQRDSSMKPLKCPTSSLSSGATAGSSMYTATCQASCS

Compound: COc1cc(C#N)ccc1C[Se]c1cccc(C2CCN(Cc3nc4ccc(C(=O)O)cc4n3C[C@@H]3CCO3)CC2)n1
Kd [1]: 1 µM
Activity [2]: Non-toxic
fraction unbound at 2 µM [3]: 0.02
Cmax [4]: 8.11 µg/mL
bioavailability [5]: 20.4%
Activity [6]: Non-toxic
Activity [7]: Non-toxic
MRT last at 24 h [8]: 0.77 h
Activity [9]: Non-toxic
AUC(0-t) at 24 h [10]: 5.46 µg·h/mL
Activity [11]: Active
Cmax [12]: 4.96 µg/mL
Activity [13]: Non-toxic
Activity [14]: Non-toxic
Activity [15]: Non-toxic
Activity [16]: Non-toxic
Activity [17]: Non-toxic
half-life [18]: 2.22 h
fCmax [19]: 99.21 ng/mL
Activity [20]: Toxic
Activity [21]: Non-toxic
Ka [22]: 5.52 10^3/M.s
Activity [23]: Non-toxic
Activity [24]: Non-toxic
Activity [25]: Non-toxic
Activity [26]: Non-toxic
fraction unbound at 2 µM [27]: 0.02
EC50 [28]: > 200 µM
Activity [29]: Active
half-life [30]: 5.13 h
Kd [31]: 5.53 10^-3/s
Activity [32]: Non-toxic
Activity [33]: Non-toxic
Activity [34]: Non-toxic
Emax [35]: 13%
Vd [36]: 1.18 L/kg
Activity [37]: Non-toxic
Activity [38]: Non-toxic
MRT last at 24 h [39]: 1.91 h
AUC(0-t) at 24 h [40]: 5.54 µg·h/mL
Activity [41]: Non-toxic
Activity [42]: Non-toxic
Activity [43]: Active
Activity [44]: Non-toxic
Activity [45]: Non-toxic
clearance [46]: 0.367 L/h/kg
Activity [47]: Non-toxic
Activity [48]: Active
Tmax [49]: 0.5 h

Compound: N#Cc1ccc(COc2cccc(C3CCN(Cc4nc5ccc(C(=O)O)cc5n4C[C@@H]4CCO4)CC3)n2)c(F)c1
Activity [11]: Active
Activity [50]: Active
Activity [29]: Active
Activity [43]: Active

EC50 [51]: > 200 µM
Compound: CC(C)[C@@H](NCc1nc2ccc(C(=O)O)cc2n1C[C@@H]1CCO1)C(=O)Nc1cccc([Se]Cc2ccc(C#N)cc2F)n1

Cmax [4]: 13.4 µg/mL
bioavailability [5]: 3.38%
MRT last at 24 h [8]: 0.4 h
AUC(0-t) at 24 h [10]: 3.26 µg·h/mL
Cmax [12]: 0.324 µg/mL
half-life [18]: 4.52 h
EC50 [28]: > 200 µM
half-life [30]: 7.02 h
Emax [35]: 12%
Vd [36]: 4.25 L/kg
MRT last at 24 h [39]: 2.88 h
AUC(0-t) at 24 h [40]: 0.537 µg·h/mL
clearance [46]: 0.618 L/h/kg
Tmax [49]: 0.5 h
Compound: COc1cc(C#N)ccc1C[Se]c1cccc(N2C=NN(Cc3nc4c(F)cc(C(=O)O)cc4n3C[C@@H]3CCO3)CC2)n1
